Experimental data reported in PMC8187479, “Sugar phosphate activation of the stress sensor eIF2B” (Nature Communications, 2021).
Numbering of substitutions follows the chain as printed. Several values for one entry are separate records, joined by “and”; a condition that tells them apart may be missing. Equal entries are not always repeated.

Key:
[1] = biological target: T1, eIF2Bα (Homo sapiens, UniProt Q14232); experiment: MIDAS (mass spectrometry integrated with equilibrium dialysis) metabolite binding screen; settings: MIDAS screen, sheet eIF2Ba; metabolites screened in pools 1-4; p-value and q-value given
T1 construct: made in house; host or cells: E. coli BL21(DE3)
T1 sequence (Q14232 1-305): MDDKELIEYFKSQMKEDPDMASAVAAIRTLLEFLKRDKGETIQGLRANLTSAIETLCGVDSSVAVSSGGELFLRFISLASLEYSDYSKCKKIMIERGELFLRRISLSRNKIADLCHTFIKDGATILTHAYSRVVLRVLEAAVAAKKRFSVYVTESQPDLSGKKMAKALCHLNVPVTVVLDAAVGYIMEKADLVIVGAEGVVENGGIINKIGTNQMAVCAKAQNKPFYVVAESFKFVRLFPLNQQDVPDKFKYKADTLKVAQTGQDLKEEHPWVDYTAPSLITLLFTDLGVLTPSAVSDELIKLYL
How it was run: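 Hits called at Storey q < 0.1 on z-scores of PCA-corrected log2 fold change between protein and metabolite chambers, quantified by FIA-MS in triplicate.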

[2] = biological target: T2, eIF2B (Homo sapiens, UniProt P49770+Q14232+Q9UI10); experiment: eIF2B GEF activity assay, unbiased metabolite screen (Bodipy-FL-GDP release); format: biochemical; settings: 10 μM metabolite
T2 construct: made in house; host or cells: eIF2Bα: E. coli BL21(DE3)
T2 sequence (P49770 whole entry, one chain of several): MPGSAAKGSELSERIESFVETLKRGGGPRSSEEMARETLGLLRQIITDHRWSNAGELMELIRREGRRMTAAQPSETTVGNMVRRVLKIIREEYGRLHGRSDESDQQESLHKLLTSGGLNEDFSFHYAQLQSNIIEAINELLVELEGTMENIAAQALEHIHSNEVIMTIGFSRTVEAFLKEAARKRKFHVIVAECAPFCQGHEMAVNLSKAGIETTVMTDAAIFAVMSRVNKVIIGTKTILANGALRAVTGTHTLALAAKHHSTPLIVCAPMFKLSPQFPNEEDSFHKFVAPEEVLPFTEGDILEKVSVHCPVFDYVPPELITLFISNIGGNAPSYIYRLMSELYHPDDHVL
T2 sequence (Q9UI10 whole entry, one chain of several): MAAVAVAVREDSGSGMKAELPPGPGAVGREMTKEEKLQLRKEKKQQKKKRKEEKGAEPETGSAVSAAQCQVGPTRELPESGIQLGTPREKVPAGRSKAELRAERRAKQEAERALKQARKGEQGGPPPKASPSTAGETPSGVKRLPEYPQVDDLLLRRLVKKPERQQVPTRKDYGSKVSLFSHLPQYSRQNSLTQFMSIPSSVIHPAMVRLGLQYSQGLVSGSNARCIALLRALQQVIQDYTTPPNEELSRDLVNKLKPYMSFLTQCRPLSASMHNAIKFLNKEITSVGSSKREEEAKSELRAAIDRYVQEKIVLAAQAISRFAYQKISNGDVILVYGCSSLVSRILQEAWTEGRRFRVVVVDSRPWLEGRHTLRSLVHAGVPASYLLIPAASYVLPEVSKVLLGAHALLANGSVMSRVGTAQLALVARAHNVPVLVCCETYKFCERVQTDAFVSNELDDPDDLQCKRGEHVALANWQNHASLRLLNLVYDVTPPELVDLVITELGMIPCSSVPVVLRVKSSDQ
T2 sequence (Q9NR50 whole entry partner, one chain of several): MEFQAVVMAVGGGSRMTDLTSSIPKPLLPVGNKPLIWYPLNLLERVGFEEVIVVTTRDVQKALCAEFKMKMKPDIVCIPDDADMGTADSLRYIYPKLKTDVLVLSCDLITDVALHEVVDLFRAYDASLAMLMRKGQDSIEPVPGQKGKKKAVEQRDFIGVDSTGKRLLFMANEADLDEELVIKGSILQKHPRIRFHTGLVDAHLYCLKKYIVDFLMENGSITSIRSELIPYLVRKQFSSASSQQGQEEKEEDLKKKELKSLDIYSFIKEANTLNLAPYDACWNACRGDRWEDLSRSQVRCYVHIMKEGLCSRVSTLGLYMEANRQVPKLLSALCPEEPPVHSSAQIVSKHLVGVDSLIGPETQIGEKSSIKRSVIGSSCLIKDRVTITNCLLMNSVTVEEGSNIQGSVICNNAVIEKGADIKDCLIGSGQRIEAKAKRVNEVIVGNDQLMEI
T2 sequence (Q13144 whole entry partner, one chain of several): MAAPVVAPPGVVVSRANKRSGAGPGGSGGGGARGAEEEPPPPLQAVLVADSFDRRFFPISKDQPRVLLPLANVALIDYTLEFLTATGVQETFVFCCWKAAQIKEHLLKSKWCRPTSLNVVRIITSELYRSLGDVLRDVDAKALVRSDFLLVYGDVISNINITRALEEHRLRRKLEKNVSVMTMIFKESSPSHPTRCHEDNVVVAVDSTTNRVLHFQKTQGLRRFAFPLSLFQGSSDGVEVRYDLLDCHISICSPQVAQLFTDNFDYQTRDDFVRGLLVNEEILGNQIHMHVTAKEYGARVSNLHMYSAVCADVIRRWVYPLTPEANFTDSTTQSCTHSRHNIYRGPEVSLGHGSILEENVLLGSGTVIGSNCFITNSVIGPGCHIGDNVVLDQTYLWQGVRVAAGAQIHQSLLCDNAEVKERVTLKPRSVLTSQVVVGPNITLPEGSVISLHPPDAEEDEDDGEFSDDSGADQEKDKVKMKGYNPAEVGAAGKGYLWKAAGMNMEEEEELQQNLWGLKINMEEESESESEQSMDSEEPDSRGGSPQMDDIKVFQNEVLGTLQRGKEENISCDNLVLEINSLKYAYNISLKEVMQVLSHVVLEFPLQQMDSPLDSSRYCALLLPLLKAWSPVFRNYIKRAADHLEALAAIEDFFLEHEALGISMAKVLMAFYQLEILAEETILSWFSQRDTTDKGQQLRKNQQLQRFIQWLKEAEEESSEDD
Protocol: (§1) Bodipy-FL-GDP-loaded eIF2 was used as a substrate for recombinant eIF2B. The assay was performed in 384-well plates. Reactions were read on a SpectraMax i3x plate reader (Molecular Devices) using the instrument’s Softmax Pro software with the following parameters: plate temperature = 25 °C; excitation wavelength = 485 nm (15 nm width); emission wavelength = 535 nm (25 nm width); read duration = 30 min at 45 s intervals. Data were analyzed in Prism. GDP release half-lives were calculated by fitting single-exponential decay curves.
For unbiased screening, MIDAS metabolite libraries at 10 mM stock concentration were dispensed into wells of the assay plate using an Echo Acoustic Liquid Handler (Labcyte). […] A single well was run for each metabolite. […] For targeted experiments with HEK293T lysates, the following conditions were used: 50 nM Bodipy-FL-GDP-loaded eIF2, 0.1 mM GDP, 1 mg/ml BSA, 0.1 or 0.3 mg/ml lysates.

[3] = test system: recombinant C. thermophilum eIF2Bα; parameters: method as in PMID 26384431; settings: ITC; cited from earlier work
[4] = biological target: T1, eIF2Bα; experiment: Differential scanning fluorimetry (Protein Thermal Shift), eIF2Bα Tm; format: binding; settings: individual replicates Rep 1-4, control without metabolite about 64.1
Protocol: The effect of metabolite binding on eIF2Bα Tm was assessed using the Protein Thermal Shift assay (Thermo Fisher), following manufacturer’s instructions. Briefly, reaction conditions for each 20 μL reaction were: 1.1 μg (1.5 μM) of eIF2Bα, 5 μl Thermal Shift buffer, 1X Thermal Shift dye, and metabolites in dose response. Reactions were run in 384-well format on a QuantStudio 6 Flex instrument (Thermo Fisher). The resulting melt curves were analyzed using Protein Thermal Shift Software, and eIF2Bα Tms for each condition were calculated by fitting to the Boltzmann function.

[5] = biological target: T3, eIF2B decamer in WT HEK293T lysate (Homo sapiens, UniProt P49770+Q14232+Q9UI10); experiment: Sucrose gradient centrifugation, eIF2B complex assembly, WT HEK293T lysate; format: biochemical; settings: 400 mM KCl, 5–20% sucrose gradient
T3 construct: endogenous in cells; host or cells: HEK293T (wild type) lysate
T3 sequence (P49770 whole entry, one chain of several): as the sequence (P49770 whole entry, one chain of several) above
T3 sequence (Q9UI10 whole entry, one chain of several): as the sequence (Q9UI10 whole entry, one chain of several) above
T3 sequence (Q9NR50 whole entry partner, one chain of several): as the sequence (Q9NR50 whole entry partner, one chain of several) above
T3 sequence (Q13144 whole entry partner, one chain of several): as the sequence (Q13144 whole entry partner, one chain of several) above
Protocol: (§2) WT or eIF2Bα mutant HEK293T cells were harvested and lysed in 50 mM HEPES, 400 mM KCl, 1 mM DTT, 4 mM Mg(OAc)2, pH 7.5 + 0.5% Triton-X-100 + EDTA-free protease inhibitor cocktail (Roche) on ice for 30 min. Lysates were cleared by centrifugation at 48,000 × g, 4 °C for 30 min. 100 μL of each cleared lysate was loaded onto a 5–20% sucrose gradient prepared in a 13 × 51 mm ultracentrifuge tube using a Gradient Station (Biocomp) and centrifuged in a SW55 Ti rotor at 152,000 × g, 4 °C for 12 h. After centrifugation, 24 × 200 μL fractions were manually collected from the top to bottom of each gradient. Each fraction was subjected to methanol/chloroform precipitation and SDS-PAGE followed by Western Blot with the indicated antibodies. Blots were imaged on a ChemiDoc MP (Bio-Rad), and band intensities were quantified using the instrument’s Image Lab software. Each value was then divided by total intensity obtained across all fractions to determine percent enrichment of each subunit in each fraction.

[6] = biological target: T2, eIF2B; experiment: eIF2B GEF activity assay, targeted, recombinant wild-type eIF2B; format: biochemical; settings: 500 nM ISRIB, 200 μM F6P, 200 μM G1P
Protocol: as §1
(§3) For unbiased screening, MIDAS metabolite libraries at 10 mM stock concentration were dispensed into wells of the assay plate using an Echo Acoustic Liquid Handler (Labcyte). In a final assay volume of 10 μL/well, the following conditions were kept constant: 25 nM Bodipy-FL-GDP-loaded eIF2, 4 nM phospho-eIF2, 0.1 mM GDP, 1 mg/mL BSA, 1 nM eIF2B, 10 μM metabolite. A single well was run for each metabolite. For targeted experiments with recombinant wild-type and mutant eIF2Bα, the following conditions were used: 50 nM Bodipy-FL-GDP-loaded eIF2, 0.1 mM GDP, 1 mg/ml BSA, 20 nM eIF2B. For targeted experiments with HEK293T lysates, the following conditions were used: 50 nM Bodipy-FL-GDP-loaded eIF2, 0.1 mM GDP, 1 mg/ml BSA, 0.1 or 0.3 mg/ml lysates.

[7] = biological target: T1, eIF2Bα; experiment: Isothermal titration calorimetry, wild-type eIF2Bα; format: binding; settings: ITC, wild-type eIF2Bα
Protocol: Interactions between recombinant protein and sugar phosphates were conducted with a MicroCal PEAQ-ITC (Malvern Panalytical Inc.). Experiments were performed in 25 mM HEPES, 150 mM NaCl, pH 7.5 at 20 °C. The sugar phosphate concentration in the syringe was 1 mM or 1.5 mM, and ~3.5 μL aliquots were injected into cells containing 300 μL eIF2Bα or eIF2B(βδγε) at a concentration of 20–30 μM. The final titration curves were fitted using MicroCal ITC data analysis software, assuming a single binding site per monomer.

[8] = biological target: T4, eIF2B in WT HEK293T lysate (Homo sapiens, UniProt P49770+Q14232+Q9UI10); experiment: GEF activity assay with WT HEK293T lysate; format: biochemical
T4 construct: endogenous in cells; host or cells: HEK293T (wild type) lysate
Protocol: as §1, §3

[9] = biological target: T5, phospho-eIF2α binding to eIF2B (Homo sapiens, UniProt P49770+Q14232+Q9UI10); experiment: Phospho-eIF2α co-immunoprecipitation with FLAG-tagged eIF2B; settings: lysate of thapsigargin-treated HEK293T eIF2Bβ-FLAG cells; ligand 2 h at 4 °C
T5 construct: endogenous in cells; host or cells: HEK293T with FLAG knock-in at the endogenous eIF2Bβ locus, treated with thapsigargin; lysate, anti-FLAG IP
Protocol: HEK293T cells endogenously expressing eIF2Bβ with a C-terminal FLAG tag were maintained in DMEM High Glucose (Corning CellGro) supplemented with 10% FBS (Gibco) and antibiotic-antimycotic (Gibco). Upon reaching 90% confluency, cells were treated with either DMSO or 100 nM thapsigargin (Sigma) for 4 h. Cells were harvested and lysed in 25 mM HEPES, 150 mM KCl, 1% NP-40, 1 mM EDTA, pH 7.4 + Complete protease inhibitor cocktail (Roche) and PhosStop (Roche) on ice for 20 min. Lysates were cleared by centrifugation at 18,000 × g, 20 min, 4 °C, and transferred to Eppendorf tubes containing anti-FLAG M2 magnetic beads (Sigma). Mixtures were incubated overnight at 4 °C. To test the effect of ligands, these were added to the mixtures and incubated for an additional 2 h at 4 °C. Beads were washed three times with lysis buffer, eluted with 1× LDS buffer (Invitrogen), and subjected to SDS-PAGE followed by Western Blot with the indicated antibodies.

[10] = biological target: T6, recombinant eIF2B(βδγε) ± eIF2Bα2 (Homo sapiens, UniProt P49770+Q9UI10); experiment: Size-exclusion chromatography of recombinant eIF2B(βδγε) with or without eIF2Bα; format: biochemical; settings: SEC, recombinant eIF2B(βδγε); 500 nM ISRIB, 200 μM F6P
T6 construct: made in house; host or cells: eIF2Bα: E. coli BL21(DE3)
Protocol: (§4) Purified proteins were thawed and centrifuged at 20,000 × g, 10 min, 4 °C to remove any potential precipitate. Concentrations of eIF2B(βδγε) and eIF2Bα were normalized to 2 μM and 2.4 μM, respectively. 0.2 mL of each mixture was injected onto a Superose 6 Increase 10/300 column connected to an AKTA Pure 25 FPLC system (GE Healthcare). The system was run at 0.5 mL/min for 1 h using 25 mM HEPES, 200 mM KCl, 2 mM MgCl2, 1 mM DTT, pH 7.5 as the mobile phase. For conditions with ISRIB, the protein samples and mobile phase were supplemented with 500 nM ISRIB. For conditions with F6P, the protein samples and mobile phase were supplemented with 200 μM F6P. UV280 measurements were obtained directly by the instrument.

[11] = biological target: T7, recombinant eIF2B(βδγε) ± eIF2Bα2 (Homo sapiens, UniProt P49770+Q14232+Q9UI10); experiment: as above; format: biochemical; settings: SEC, recombinant eIF2B(βδγε) + eIF2Bα2; 500 nM ISRIB, 200 μM F6P
T7 construct: made in house; host or cells: eIF2Bα: E. coli BL21(DE3)
Protocol: as §4

[12] = biological target: T8, eIF2B in eIF2Bα^E198K HEK293T lysate (Homo sapiens, UniProt P49770+Q14232+Q9UI10, E198K); experiment: GEF activity assay with eIF2Bα E198K HEK293T lysate; format: biochemical
T8 construct: endogenous in cells; host or cells: HEK293T, CRISPR knock-in eIF2Bα E198K (homozygous), lysate
Protocol: as §1, §3

[13] = biological target: T9, eIF2B decamer in eIF2Bα^E198K HEK293T lysate (Homo sapiens, UniProt P49770+Q14232+Q9UI10, E198K); experiment: Sucrose gradient centrifugation, eIF2B complex assembly, eIF2Bα E198K HEK293T lysate; format: biochemical
T9 construct: endogenous in cells; host or cells: HEK293T, CRISPR knock-in eIF2Bα E198K (homozygous), lysate
Protocol: as §2

[14] = biological target: T10, eIF2B decamer in eIF2Bα^V183F HEK293T lysate (Homo sapiens, UniProt P49770+Q14232+Q9UI10, V183F); experiment: Sucrose gradient centrifugation, eIF2B complex assembly, eIF2Bα V183F HEK293T lysate; format: biochemical; settings: 500 nM ISRIB, 200 μM F6P
T10 construct: endogenous in cells
Protocol: as §2

[15] = biological target: T11, eIF2Bα^V183F (Homo sapiens, UniProt Q14232, V183F); experiment: Size-exclusion chromatography of recombinant eIF2Bα V183F, alone or with eIF2B(βδγε); format: biochemical; settings: SEC, eIF2Bα V183F alone
T11 construct: made in house; host or cells: E. coli BL21(DE3)
T11 sequence (Q14232 1-305 V183F): T1 sequence (Q14232 1-305) with V183F
Protocol: as §4

SMILES	log2(corrected fold change) [1]	effect on eIF2B GEF activity in the screen [2]	binding to C. thermophilum eIF2Bα [3]	Tm of eIF2Bα ([4]; 0.33 mM metabolite)	Tm of eIF2Bα ([4]; 1 mM metabolite)	Tm of eIF2Bα ([4]; 3.3 mM metabolite)	Tm of eIF2Bα ([4]; 10 mM metabolite)	eIF2B decamer formation (migration of eIF2Bα and eIF2Bδ) [5]	effect on GEF activity of recombinant wild-type eIF2B [6]	interaction with eIF2Bα [7]	effect on GEF activity of WT lysate [8]	co-immunoprecipitation of phospho-eIF2α with FLAG-tagged eIF2B [9]	complex formation in the absence of eIF2Bα [10]	complex formation in the presence of eIF2Bα [11]	effect on GEF activity of eIF2Bα E198K lysate [12]	eIF2B decamer formation [13]	eIF2B decamer formation [14]	monomer-to-dimer shift of eIF2Bα V183F [15]
Nc1ncnc2c1ncn2[C@@H]1O[C@H](COP(=O)(O)O)[C@@H](O)[C@H]1O [AMP, Adenosine monophosphate]	0.1066	a hit in this functional assay screen	binding	65.271 °C and 65.2418 °C and 65.0115 °C and 64.5232 °C	66.0123 °C and 65.9255 °C and 65.7398 °C and 64.0959 °C	65.3392 °C and 65.2463 °C and 65.3342 °C and 64.7156 °C	66.4657 °C and 66.4512 °C and 66.2897 °C and 64.6159 °C											
O=P(O)(O)O[C@H]1O[C@H](CO)[C@@H](O)[C@H](O)[C@H]1O [G1P, glucose-1-phosphate]				64.9734 °C and 64.7812 °C and 64.8751 °C and 63.7923 °C	65.6948 °C and 65.7116 °C and 65.1967 °C and 64.0445 °C	65.6535 °C and 64.9673 °C and 65.2055 °C and 64.2208 °C	65.8625 °C and 65.8106 °C and 65.498 °C and 64.4559 °C	did not affect the migration of eIF2B subunits	an inactive metabolite in the enzymatic assay	did not interact								
Nc1nc2c(ncn2[C@@H]2O[C@H](COP(=O)(O)O)[C@@H](O)[C@H]2O)c(=O)[nH]1 [GMP]			binding	65.0444 °C and 64.6931 °C and 64.6421 °C and 63.969 °C	65.9427 °C and 65.8956 °C and 65.7456 °C and 64.3903 °C	65.9427 °C and 65.7951 °C and 65.7602 °C and 64.8164 °C	66.5064 °C and 66.3635 °C and 66.1504 °C and 64.9333 °C											
O=C(COc1ccc(Cl)cc1)NC1CCC(NC(=O)COc2ccc(Cl)cc2)CC1 (stereo not shown) [ISRIB, reference compound]								formation of the decameric holoenzyme			stimulated	significantly disrupted	enhanced formation of an (βδγε)2 octamer	enhanced formation	boosted	produced a shift to the decameric form	promoted decamer formation at comparable levels	had no effect
